“Also recorded” adds a separate entry of the source. Like-named read-outs stand apart in the source and are kept apart here.
Assays:
growth hormone secretion = assay: Serum growth hormone (ELISA/EIA) after oral melatonin supplementation 60 min before a single bout of resistance exercise (leg press); format: in vivo, human (healthy males)
From the text: Thirty, healthy males who had partaken in regular resistance training for at least one year prior to the study were selected [n=30(22.72±3.28 years, 180.94±6.24 cm in height, and 82.08±9.18 kg in weight)] served as participants in the study. All of the participants passed a mandatory medical screening and were considered either as low or moderate risk or with no contradictions to exercise as outline by the American College of Sports Medicine (ACSM). Furthermore, the participants had not consumed any nutritional supplements, with the exclusion of vitamins, during a two month period prior the experiment.
Participants were matched by relative strength level (strength/body weight) and then randomly assigned to one of three different protocols. The supplement protocol consisted of a double-blind with groups receiving either 0.5 mg or 5.0 if melatonin (N-Acetyl-5-methoxytryptamine) or 1.0 mg of dextrose as a placebo. Participants were allowed a light breakfast at 8:00 am, wherein they were asked to record the consumed items, and then were required to fast until 2 pm. Seventy-five minutes prior to each exercise session, (12:30 pm), an intravenous cannula was inserted into a foreman vein. At 60 minutes prior to the exercise session, a baseline blood sample was taken and the participant orally received a supplement of placebo according top that outlined above. During the 60 minutes prior to exercise, the participants were required to rest in a supine position and blood samples were taken every 15 minutes up to the initiation of the resistance exercise. The leg press exercise consisted of 7 sets of 7 slow repetitions at 85% of the weight of the respective participant's one repetition maximum. Each set was preformed over the course of 30 seconds followed by 150 seconds of rest. The entire resistance exercise session was 21 minutes in duration.
Venous blood samples were obtained into 10 ml vacutainer tubes via a 20 gauge intravenous catheter inserted into a foreman vein after the subcutaneous injection of a topical anesthetic (2% Xylocaine). Following the five hour fast, blood samples were obtained at 15-minute intervals commencing 60 minutes prior to the resistance exercise session and then at 15-minute intervals for 120 minutes following the resistance exercise session. Blood samples were allowed to stand for 10 minutes at room temperature and then centrifuged at 2,400 rpm for 10 minutes. The serum was then separated and stored at (−)20° C. until analysis.
Using enzyme-linked immunosorbent assays (ELISA), and enzyme-immunosorbent assays (EIA), serum samples were assayed for growth hormone (Diagnostics Systems Laboratories, Webster, Tex.) using a Wallac Victor-1420 microplate reader from Perkin-Elmer Life Sciences. Boston, Mass. at either 450 or 405 nm respectively. An ultra-sensitive assay with a lower detection limit of 0.66 pg/ml was used to determine the levels of growth hormone without any detectable interference of circulation glycoproteins, GH-dependent peptide hormones, or growth hormone binding protein.
Statistical analyses were performed using factorial analysis of variance (ANOVA) with repeated measures for each criterion value. Pairwise comparisons were used to differentiate significant differences among the three groups. All statistical procedures were performed using SPSS 11.0 software and a probability level of <0.05 was adopted throughout.
Short half-life hormones which are highly sensitive to diurnal variations, such as growth hormone, display great variability in the baseline values as was observed. As such, peak serum hormone responses before and after resistance exercise were subtracted from the baseline values of each participant in order to determine the increase in the growth hormone resulting from the treatments.

growth hormone release = conditions: cited from earlier work
growth hormone [1] = conditions: no exercise, cited from earlier work
growth hormone [2] = conditions: 5.0 mg oral 60 minutes prior to bicycle exercise at 70% VO2max; cited from earlier work

Compound: COc1ccc2[nH]cc(CCNC(C)=O)c2c1 [melatonin, N-Acetyl-5-methoxytryptamine]
- fold increase in serum growth hormone relative to placebo (growth hormone secretion; 0.5 mg melatonin oral 60 min prior to exercise, post-exercise period): approximately 3.16 fold
- serum growth hormone levels compared to placebo (in words) (growth hormone secretion; 0.5 mg melatonin oral, post-workout period): statistically significant (p=0.045) elevations
- serum growth hormone levels compared to placebo (in words) (growth hormone secretion; 0.5 mg melatonin oral, pre-exercise period): no statistical difference; also recorded: no significant increase
- increase in growth hormone of the 0.5 mg group compared to the 5.0 mg group (in words) (growth hormone secretion; 0.5 mg vs 5.0 mg melatonin oral, post-exercise): significantly greater increase
- serum growth hormone levels compared to placebo (in words) (growth hormone secretion; 5.0 mg melatonin oral, post-workout period): statistically significant (p=0.045) elevations
- serum growth hormone levels compared to placebo (in words) (growth hormone secretion; 5.0 mg melatonin oral, pre-exercise period): increased relative to placebo
- fold increase in serum growth hormone relative to placebo (growth hormone secretion; 5.0 mg melatonin oral, pre-exercise period, peak standardized to baseline): ~2.35 fold
- effect on basal growth hormone levels (growth hormone release; 0.4 mg/kg intravenous): have been shown to have an effect
- effect on basal growth hormone levels (growth hormone release; 1 g oral): have been shown to have an effect
- effect on the 24-hr profile of growth hormone concentration (growth hormone release; small doses, less than 2 mg, oral): have not be shown to affect
- plasma growth hormone concentrations (growth hormone [1]; 0.5 mg oral): significant increase
- time of peak plasma growth hormone values (growth hormone [1]; 0.5 mg oral): 60 min
- plasma growth hormone concentrations (growth hormone [1]; 5.0 mg oral): significant increase
- time of peak plasma growth hormone values (growth hormone [1]; 5.0 mg oral): 60 min
- growth hormone compared to placebo, area under the curve (growth hormone [2]): significant increases
- time of growth hormone peak following exercise (growth hormone [2]): 30 min
